One may read the IC50 as the concentration that gives 50% inhibition.

Counter-ions that a name gives are not always drawn. Like-named read-outs stand apart in the source and are kept apart here.

One series has as its system anesthetized guinea-pig. The experiment in a line: Inotropic effect and lethal dose, slow intravenous infusion (over 90 minutes) in anesthetized guinea-pig. The following applies: for % decrease from Emax after 20 min from the end of the infusion: duration of the inotropic effect; for Maximum dose infused: maximum dose infused in the survived animals; for Emax % increase in +dP/dTmax: maximum increase in contractile force; for Emax % increase in +dP/dTmax / Dead/treated / ED80 (inotropic potency, dose increasing +dP/dTmax by 80%) / EDmax (dose inducing maximum positive inotropic effect): slow i.v. infusion over 90 minutes; for ED80 / ED (max) / Emax: Cavia porcellus, iv, 1.5 h; for ED80: read-out: ED80 (inotropic potency, dose increasing +dP/dTmax by 80%); for ED (max): read-out: EDmax (dose inducing maximum positive inotropic effect); for Emax: read-out: Emax % increase in +dP/dTmax; for Lethal dose/ED80 (safety ratio): calculated in the died animals.

For a further series, the target named is Na+, K+-ATPase (Canis lupus familiaris, UniProt P50997). Nature of the series: biochemical. Set-up: species or system dog.
For the next series, the system named is fresh rat hepatocytes. The experiment in a line: Metabolism in fresh rat hepatocytes. The following applies: for % of compound metabolized after 60 minutes: fresh rat hepatocytes, test item nominal concentration 45 μM.
[1] abbreviates: read-out: Na+, K+-ATPase Inhibition IC50.
The mark [2] stands for this setting: dog kidney enzyme, read-out: Na+, K+-ATPase Inhibition IC50.

Take `C[C@]12CC[C@H]3[C@@H](C/C(=N\O)[C@@]4(O)CC(=NOCCN)CC[C@]34C)[C@@H]1CCC2=O.O=C(O)/C=C/C(=O)O` [I-bo, (E,Z)-3-(2-Aminoethoxyimino)-5α-hydroxy-6-(E)-hydroxyiminoandrostane-17-one fumarate]: in the series on anesthetized guinea-pig, the “% decrease from Emax after 20 min from the end of the infusion” value (from here on “% decrease from Emax after 20 min”) came to 82%, the Maximum dose infused amounted to 12.5 µmol/kg, the “Emax % increase in +dP/dTmax” value came out at 214% and the Dead/treated is on record as 0/3. In the series on anesthetized guinea-pig, the “ED80 (inotropic potency, dose increasing +dP/dTmax by 80%)” value was determined as 1.30 µmol/kg and the “EDmax (dose inducing maximum positive inotropic effect)” value amounted to 4.86 µmol/kg. Further, the 50% inhibitory concentration (IC50) at Na+, K+-ATPase (setting [1]) amounted to 79 nM.
Regarding `C[C@]12CCC(=NOCCN)CC1C(=O)C[C@@H]1[C@@H]2CC[C@]2(C)C(=O)CC[C@@H]12.Cl` (mixture of isomers) [compd 22b, (EZ) 3-(2-aminoethoxyimino)androstane-6,17-dione hydrochloride, reference compound], in the series with anesthetized guinea-pig, the ED80 worked out at 1.82 µmol/kg, the ED (max) came to 5.74 µmol/kg, the Emax was found to be 182% and the “Lethal dose/ED80 (safety ratio)” value is 22.6. Besides, in the series with anesthetized guinea-pig, the “% decrease from Emax after 20 min” value stood at 100%, the Maximum dose infused is 32.1 µmol/kg and the Dead/treated was 7/8. Moreover, the “% of compound metabolized after 60 minutes” value (from here on “% of compound metabolized”) with fresh rat hepatocytes is listed as 95%. Also, the “metabolism in fresh rat hepatocytes (in words)” value in the series on fresh rat hepatocytes (within 60 minutes) was “almost completely metabolized”.
As for `CC1CC2C3CCC(=O)C3(C)CCC2C2(C)CCC(=NOCCN)CC12` (single isomer, unassigned) [I-ba, (E,Z) 3-(2-Aminoethoxyimino)-6α-methylandrostan-17-one hydrochloride], in the series with anesthetized guinea-pig, the ED80 is 3.09 µmol/kg, the ED (max) stood at 5.78 µmol/kg, the Emax was 203% and the “% decrease from Emax after 20 min” value worked out at 100%. In the series on anesthetized guinea-pig, the Maximum dose infused worked out at 6.3 µmol/kg and the Dead/treated is 0/3. Further, the midpoint of inhibition on Na+, K+-ATPase (Na+, K+-ATPase Inhibition IC50), the IC50, lay at 300 nM.
With `C#C[C@H]1C[C@@H]2[C@H](CC[C@]3(C)C(=O)CC[C@@H]23)[C@@]2(C)CCC(=NOCCN)C[C@H]12` (mixture of isomers) [I-bd, (E,Z) 3-(2-Aminoethoxyimino)-6α-ethynylandrostan-17-one hydrochloride], in the series on anesthetized guinea-pig, the ED80 turned out to be 4.59 µmol/kg, the ED (max) is 9.89 µmol/kg, the Emax turned out to be 163% and the “% decrease from Emax after 20 min” value was 16%. Further, in the series with anesthetized guinea-pig, the Maximum dose infused turned out to be 12.8 µmol/kg and the Dead/treated is given as 0/3. This compound registered a 50% inhibitory concentration (IC50) on Na+, K+-ATPase (Na+, K+-ATPase Inhibition IC50) of 200 nM.
With `C=C1C[C@@H]2[C@H](CC[C@]3(C)C(=O)CC[C@@H]23)[C@@]2(C)CC/C(=N\OCCN)CC12.Cl` (some centres unmarked) [I-ai, (E) 3-(2-Aminoethoxyimino)-6-methyleneandrostan-17-one hydrochloride], in the series on anesthetized guinea-pig, the ED80 was 1.2 µmol/kg, the ED (max) amounted to 2.99 µmol/kg, the Emax was determined as 235% and the “% decrease from Emax after 20 min” value was 100%. Also, in the series on anesthetized guinea-pig, the Maximum dose infused was determined as 3.2 µmol/kg and the Dead/treated is listed as 0/5. Besides, the “% of compound metabolized” value in the series with fresh rat hepatocytes is 27%. Moreover, the IC50 against Na+, K+-ATPase (Na+, K+-ATPase Inhibition IC50) was found to be 84 nM.
On to `C[C@]12CC[C@H]3[C@@H](CC[C@@]4(O)CC(=NOCCN)CC[C@]34C)[C@@H]1CCC2=O` (mixture of isomers) [I-ad, (E,Z) 3-(2-Aminoethoxyimino)-5α-hydroxyandrostan-17-one fumarate], for which, in the series with anesthetized guinea-pig, the ED80 amounted to 5.14 µmol/kg, the ED (max) came out at 22.5 µmol/kg, the Emax was determined as 202% and the “% decrease from Emax after 20 min” value worked out at 100%. In the series on anesthetized guinea-pig, the Maximum dose infused is 50.1 µmol/kg and the Dead/treated was 0/3. For the same compound, on Na+, K+-ATPase (Na+, K+-ATPase Inhibition IC50), inhibition was half-maximal at 540 nM (IC50).
Turning to `C[C@]12CC[C@H]3[C@@H](CC[C@@]4(O)C[C@H](/C=C\CCCN)CC[C@]34C)[C@@H]1CCC2=O` [I-dk, 3α-(5-Aminopent-1-(Z)-enyl)-5α-hydroxyandrostane-17-one fumarate], the “% of compound metabolized” value with fresh rat hepatocytes came to 12%. Further, the IC50 on Na+, K+-ATPase (setting [2]) was determined as 690 nM.
Consider `CC12CCC3C(CC(CCO)C4CC(=NOCCN)CCC43C)C1CCC2=O` (mixture of isomers) [I-am, (E,Z) 3-(2-Aminoethoxyimino)-6α-(2-hydroxyethyl)androstan-17-one hydrochloride], for which, in the series on anesthetized guinea-pig, the ED80 stood at 2.5 µmol/kg, the ED (max) was found to be 17.2 µmol/kg, the Emax was 238% and the “Lethal dose/ED80 (safety ratio)” value was 22.7. In addition, in the series on anesthetized guinea-pig, the “% decrease from Emax after 20 min” value turned out to be 17%, the Maximum dose infused came to 50.5 µmol/kg and the Dead/treated was 2/3. For the same compound, the half-inhibitory concentration (IC50) at Na+, K+-ATPase (setting [2]) was found to be 320 nM.
With `CON=C1CC2C3CCC(=O)C3(C)CCC2C2(C)CCC(=NOCCN)CC12` (mixture of isomers) [I-aw, (E,Z)-3-(2-Aminoethoxyimino)-6-(E)-methoxyiminoandrostan-17-one hydrochloride], in the series on anesthetized guinea-pig, the ED80 stood at 2.35 µmol/kg, the ED (max) came out at 5.77 µmol/kg, the Emax turned out to be 183% and the “% decrease from Emax after 20 min” value is reported as 100%. Further, in the series on anesthetized guinea-pig, the Maximum dose infused was determined as 12.7 µmol/kg and the Dead/treated is 0/5. Moreover, the half-inhibitory concentration (IC50) at Na+, K+-ATPase (setting [2]) stood at 17 nM.
With `C[C@]12CC[C@H](OC(=O)CCN)CC1/C(=N/O)C[C@@H]1[C@@H]2CC[C@]2(C)C(=O)CC[C@@H]12.Cl` (stereo partly drawn) [I-dm, 3β-(3-Aminopropionyloxy)-6-(E)-hydroxyiminoandrostan-17-one hydrochloride], in the series with fresh rat hepatocytes, the “% of compound metabolized” value was found to be 71%.
For the compound `CC12CCC3C(C(=O)CC4CC(=NOCCN)CCC43C)C1CCC2=O` (mixture of isomers) [I-br, (E,Z) 3-(2-Aminoethoxyimino)androstane-7,17-dione fumarate], in the series with anesthetized guinea-pig, the ED80 turned out to be 1.62 µmol/kg, the ED (max) is 13.5 µmol/kg, the Emax came to 264% and the “Lethal dose/ED80 (safety ratio)” value is recorded as 32.4. Further, in the series on anesthetized guinea-pig, the “% decrease from Emax after 20 min” value is listed as 100%, the Maximum dose infused came out at 50.4 µmol/kg and the Dead/treated is on record as 2/5. Moreover, on Na+, K+-ATPase (Na+, K+-ATPase Inhibition IC50), 210 nM corresponded to half-maximal inhibition (IC50).
As to `C[C@]12CC[C@@H](/C=C\CCCN)CC1/C(=N/O)C[C@@H]1[C@@H]2CC[C@]2(C)C(=O)CC[C@@H]12.O=C(O)/C=C/C(=O)O` (stereo partly drawn) [I-dg, 3α-(5-Aminopent-1-(Z)-enyl)-6-(E)-hydroxyiminoandrostan-17-one fumarate], in the series with anesthetized guinea-pig, the “% decrease from Emax after 20 min” value is reported as 29%, the Maximum dose infused came out at 12.9 µmol/kg, the “Emax % increase in +dP/dTmax” value came out at 105% and the Dead/treated is reported as 0/3. Besides, in the series on anesthetized guinea-pig, the “ED80 (inotropic potency, dose increasing +dP/dTmax by 80%)” value came to 8.62 µmol/kg and the “EDmax (dose inducing maximum positive inotropic effect)” value was found to be 11.4 µmol/kg. Further, the 50% inhibitory concentration (IC50) on Na+, K+-ATPase (setting [1]) stood at 390 nM.
As for `CO/N=C1\C[C@H]2[C@@H]3CCC(=O)[C@@]3(C)CC[C@@H]2[C@@]2(C)CCC(=NOCCN)C[C@]12O` (mixture of isomers) [I-bp, (E,Z)-3-(2-Aminoethoxyimino)-5α-hydroxy-6-(E)-methoxyiminoandrostane-17-one fumarate], the “% of compound metabolized” value with fresh rat hepatocytes was 32%. Besides, on Na+, K+-ATPase (Na+, K+-ATPase Inhibition IC50), the IC50 is 40 nM.
As for `CC12CCC3C(C(=NO)CC4CC(=NOCCN)CCC43C)C1CCC2=O` (mixture of isomers) [I-bs, (E,Z)-3-(2-Aminoethoxyimino)-7-(E)-hydroxyiminoandrostane-17-one fumarate], in the series on fresh rat hepatocytes, the “% of compound metabolized” value stood at 15%.
Consider `CNCCCON=C1CC[C@@]2(C)C(C1)C(=NOC)C[C@@H]1[C@@H]2CC[C@]2(C)C(=O)CC[C@@H]12.Cl` (some centres unmarked) [I-ci, (E,Z) 3-(3-N-Methylaminopropoxyimino)-6-(E)-methoxyiminoandrostan-17-one hydrochloride], for which the “% of compound metabolized” value in the series on fresh rat hepatocytes was determined as 41%. Also, the IC50 on Na+, K+-ATPase (setting [1]) came out at 330 nM.
As to `CC12CCC3C(CC(CO)C4CC(=NOCCN)CCC43C)C1CCC2=O` (single isomer, unassigned) [I-ao, (E,Z) 3-(2-Aminoethoxyimino)-6α-hydroxymethylandrostan-17-one hydrochloride], in the series on anesthetized guinea-pig, the ED80 stood at 1.8 µmol/kg, the ED (max) was determined as 7.37 µmol/kg, the Emax is 166% and the “% decrease from Emax after 20 min” value turned out to be 100%. Also, in the series with anesthetized guinea-pig, the Maximum dose infused was 12.6 µmol/kg and the Dead/treated is recorded as 0/3. Further, on Na+, K+-ATPase (setting [2]), the concentration for half-maximal inhibition (IC50) came out at 180 nM.
For the compound `CNCCCON=C1CCC2(C)C(C1)C(NC=O)CC1C3CCC(=O)C3(C)CCC12` (mixture of isomers) [I-co, (E,Z) 3-(3-N-Methylaminopropoxyimino)-6α-formamidoandrostan-17-one hydrochloride], in the series on anesthetized guinea-pig, the ED80 came out at 0.93 µmol/kg, the ED (max) stood at 2.79 µmol/kg, the Emax came out at 177% and the “Lethal dose/ED80 (safety ratio)” value was 47.4. Moreover, in the series with anesthetized guinea-pig, the Maximum dose infused was 44.1 µmol/kg and the Dead/treated is given as 2/2. Further, the 50% inhibitory concentration (IC50) on Na+, K+-ATPase (setting [2]) came out at 1100 nM.
For the compound `C=C1C[C@H]2[C@@H]3CCC(=O)[C@@]3(C)CC[C@@H]2[C@@]2(C)CCC(=NOCCN)C[C@]12O` (mixture of isomers) [I-bq, (E,Z) 3-(2-Aminoethoxyimino)-5α-hydroxy-6-methylenandrostane-17-one hydrochloride], in the series with anesthetized guinea-pig, the ED80 came to 5.87 µmol/kg, the ED (max) worked out at 15.7 µmol/kg, the Emax came out at 173% and the “% decrease from Emax after 20 min” value turned out to be 10%. In the series on anesthetized guinea-pig, the Maximum dose infused turned out to be 25.3 µmol/kg and the Dead/treated is 0/3. Further, the half-maximal inhibitory concentration (IC50) against Na+, K+-ATPase (Na+, K+-ATPase Inhibition IC50) was 99 nM.

Source of the values: patent US8609644B2, “Amino derivatives of androstanes and androstenes as medicaments for cardiovascular disorders” (priority 2006, dated 2013).
